pEC50, pIC50: −log10 of the molar value. Values belong to the molecule of their own block, whether it stands above or below them. Square brackets hold non-standard residues; d marks the D form. d2Nal = N[C@H](Cc1ccc2ccccc2c1)C(=O)O; Nle = CCCC[C@H](N)C(=O)O
Tests used:
[1] = biological target: MC4R over MC3R (Homo sapiens, UniProt P32245); conditions: cited from earlier work
[2] = biological target: T1, MC4R (Homo sapiens, UniProt P32245); conditions: MC4R antagonist; cited from earlier work
[3] = biological target: T2, hMC4R mutant R165W (Homo sapiens, UniProt P32245, R165W); experiment: Pharmacological chaperone assay, cell surface expression by FACS, mutant R165W; format: cell-based
T2 construct: expressed in transfected cells; host or cells: HEK 293 cells, transient transfection
T2 sequence (P32245 whole entry R165W): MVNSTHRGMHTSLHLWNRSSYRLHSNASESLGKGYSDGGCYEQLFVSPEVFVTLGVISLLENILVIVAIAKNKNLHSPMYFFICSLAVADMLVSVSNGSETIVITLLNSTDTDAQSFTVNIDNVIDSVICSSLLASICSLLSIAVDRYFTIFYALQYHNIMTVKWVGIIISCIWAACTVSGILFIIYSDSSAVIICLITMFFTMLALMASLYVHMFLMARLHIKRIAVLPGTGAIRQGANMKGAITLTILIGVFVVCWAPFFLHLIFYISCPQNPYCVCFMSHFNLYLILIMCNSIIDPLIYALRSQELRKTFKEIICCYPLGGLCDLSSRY
Method: (§1) HEK 293 cells were transiently transfected with wild-type (WT) or the following hMC4R mutants double tagged with 3HA and Venus (Enhanced Yellow Green Fluorescent Protein; EYFP): S58C; N62S; R165W; R165Q, and P299H.
(§2) FACS analysis was performed after fluorescently labeling cells with primary anti-HA.11 antibody (mouse; 1:1000 dilution) and the secondary antibody coupled to Alexa 647 (goat anti-mouse; 1:1000 dilution) dilution. Live cells (propidium iodide negative) were sorted into the following two relevant populations: • P4: Total YFP positive cells (representative of total MC4R expression) • P5: Percent of cells positive for both YFP and Alexa 647 (Alexa and YFP positive cells)/(YFP positive cells+Alexa and YFP positive cells) (representative of cell surface expression)
(§3) Briefly, cells harboring each of the above-referenced MC4R mutants (transfected as described in Example 3) were cultured with each of the antagonist compounds at concentrations of 1.0 μM and 10 μM for 12 h and evaluated for cell surface expression of MC4R using fluorescent activated cell sorting analysis as described above. Cell surface expression levels are compared between treatment and basal conditions. Percent Gain is determined according to the following: [Gain=[(% of surface expression (with treatment)−% of surface expression (w/o treatment))/% of surface expression (w/o treatment)]*100.

[4] = biological target: T3, hMC4R mutant P299H (Homo sapiens, UniProt P32245, P299H); experiment: Pharmacological chaperone assay, cell surface expression by FACS, mutant P299H; format: cell-based; conditions: 12 h
T3 construct: expressed in transfected cells; host or cells: HEK 293 cells, transient transfection
T3 sequence (P32245 whole entry P299H): as the sequence (P32245 whole entry R165W) above, with W165R, P299H counted along it
Method: as §1, §2, §3

[5] = biological target: T4, hMC4R mutant S58C (Homo sapiens, UniProt P32245, S58C); experiment: Pharmacological chaperone assay, cell surface expression by FACS, mutant S58C; format: cell-based
T4 construct: expressed in transfected cells; host or cells: HEK 293 cells, transient transfection
T4 sequence (P32245 whole entry S58C): as the sequence (P32245 whole entry R165W) above, with S58C, W165R counted along it
Method: as §1, §2, §3

[6] = biological target: T5, hMC4R mutant R165Q (Homo sapiens, UniProt P32245, R165Q); experiment: Pharmacological chaperone assay, cell surface expression by FACS, mutant R165Q; format: cell-based; conditions: 12 h
T5 construct: expressed in transfected cells; host or cells: HEK 293 cells, transient transfection
T5 sequence (P32245 whole entry R165Q): as the sequence (P32245 whole entry R165W) above, with W165Q counted along it
Method: as §1, §2, §3

[7] = biological target: T6, hMC4R mutant N62S (Homo sapiens, UniProt P32245, N62S); experiment: Pharmacological chaperone assay, cell surface expression by FACS, mutant N62S; format: cell-based; conditions: 12 h
T6 construct: expressed in transfected cells; host or cells: HEK 293 cells, transient transfection
T6 sequence (P32245 whole entry N62S): as the sequence (P32245 whole entry R165W) above, with N62S, W165R counted along it
Method: as §1, §2, §3

[8] = biological target: T1, MC4R; conditions: cited from earlier work
[9] = biological target: MC4R as compared to the MC3R (Homo sapiens, UniProt P32245); conditions: cited from earlier work
Sequence of MC4R as compared to the MC3R (P32245 whole entry): as the sequence (P32245 whole entry R165W) above, with W165R counted along it

[10] = biological target: MC4R as compared to the MC5R (Homo sapiens, UniProt P32245); conditions: cited from earlier work
Sequence of MC4R as compared to the MC5R (P32245 whole entry): as the sequence (P32245 whole entry R165W) above, with W165R counted along it

T1 sequence (P32245 whole entry): as the sequence (P32245 whole entry R165W) above, with W165R counted along it
Sequence of MC4R over MC3R (P32245 whole entry): as the sequence (P32245 whole entry R165W) above, with W165R counted along it

Molecule: Ac-Nle-c[Asp-Cpe-DNal(2′)-Arg-Trp-Lys-NH(2) [SHU9119 analogue, cyclic MC4R antagonist of Grieco et al., J Med Chem 2002]
selectivity over MC3R [1]: 200 fold | pIC50 [2]: 9.29

% Gain in cell surface expression ([3]; 1 μM, 12 h): 150% | % Gain in cell surface expression ([3]; 10 μM, 12 h): 675% | % Gain in cell surface expression ([4]; 1 μM): 11.11% | % Gain in cell surface expression ([4]; 1 μM, listed as compound shown in FIG. 6): no effect | % Gain in cell surface expression ([4]; 10 μM): 38.9% | % Gain in cell surface expression ([4]; 10 μM, listed as compound shown in FIG. 6): no effect | % Gain in cell surface expression ([5]; 1 μM, 12 h): 60% | % Gain in cell surface expression ([5]; 10 μM, 12 h): 130% | % Gain in cell surface expression ([6]; 1 μM): 91.7% | % Gain in cell surface expression ([6]; 10 μM): 508% | % Gain in cell surface expression ([7]; 1 μM): 6.25% | % Gain in cell surface expression ([7]; 10 μM): 212.5%
Molecule: Br.COc1ccc([N+](=O)[O-])cc1CSc1ccccc1C1=NCCCN1 [Compound 4]

% Gain in cell surface expression ([3]; concentration not given): 28.95% | % Gain in cell surface expression ([5]; concentration not given): 31.25%
Molecule: COc1ccc(Cl)cc1Nc1nc(-c2sc(NC(=O)c3ccccc3)nc2C)cs1 [Compound 5]

Molecule: Ac-Nle-c[Asp-Che-DNal(2′)-Arg-Trp-Lys-NH(2) [SHU9119 analogue, cyclic MC4R antagonist of Grieco et al., J Med Chem 2002]
selectivity over MC3R [1]: 100 fold | pIC50 [2]: 9.32

Molecule: O=C(N[C@H](Cc1ccc(Cl)cc1)C(=O)N1CCN(c2ccccc2CN2CCCC2)CC1)[C@H]1Cc2ccccc2CN1 [Compound 2]
pEC50 [8]: 7.41

Molecule: Ac-Nle-Gly-Lys-D-Nal(2)-Arg-Trp-Gly-NH(2) (Ac-[Nle]GK[d2Nal]RWG-NH2; SMILES CCCC[C@H](NC(C)=O)C(=O)NCC(=O)N[C@@H](CCCCN)C(=O)N[C@H](Cc1ccc2ccccc2c1)C(=O)N[C@@H](CCCNC(=N)N)C(=O)N[C@@H](Cc1c[nH]c2ccccc12)C(=O)NCC(N)=O)
selectivity for the MC4R as compared to the MC3R [9]: 34 fold | selectivity for the MC4R as compared to the MC5R [10]: 109 fold
